Results on 2 molecules are retold here after patent US20240182444A1, “ANTI-VIRAL COMPOUNDS” (Aligos Therapeutics, Inc., priority 2022, published 2024).

Data set [1] concerns SARS-CoV-2. The conditions noted are these: A549-ACE2 expressing TMPRSS2; cited from earlier work.
Data set [2] concerns the target 3Clpro (Severe acute respiratory syndrome coronavirus 2, UniProt P0DTD1). The conditions noted are these: cited from earlier work.
The test system of data set [3] is SARS-CoV-2. The conditions noted are these: VeroE6, A549-ACE2 and/or HeLa-ACE2; cited from earlier work.
The test system of data set [4] is SARS-CoV-2 B.1.1.7 lineage. Nature of the data set: microbe, parasite or virus in culture. Type of data set: cell-based. The note with it: Severe acute respiratory syndrome coronavirus 2, 96 h; read-out: A549-dual_ACE2_TMPRSS2 (EC50).
In data set [5] the target is T1, SARS-Cov-2 3CLpro (Severe acute respiratory syndrome coronavirus 2, UniProt P0DTD1).
T1 construct: 3CLpro was added using a Multidrop Combi
Nature of the data set: SARS-Cov-2 3CLpro protease assay (SAMDI-MS). The note with it: 30 mins preincubation, duplex peptide substrates; read-out: SARS-Cov-2 (3CLpro IC50). Type of data set: biochemical.

In data set [6] the test system is human beta-coronavirus OC43. As to the kind of experiment: OC43 coronavirus antiviral assay in HeLa cells. It is filed as cell-based. The conditions noted are these: Betacoronavirus 1, 144 h, OC43, 6 days at 33° C., cell-titer-glo. How it is done:
(§1) The human beta-coronavirus OC43 was purchased from ATCC (Manassas, VA) and propagated using HCT-8 human colorectal epithelial cells (ATCC). HeLa human cervical epithelial cells (ATCC) were used as susceptible host cell lines and were cultured using EMEM media, supplemented with 10% fetal bovine serum (FBS), 1% (v/v) penicillin/streptomycin (P/S), 1% (v/v) HEPES and 1% (v/v) cellgro Glutagro™ supplement (all Corning, Manassas, VA) at 37° C. For the OC43 antiviral assay, 1.5×10^4 HeLa cells per well were plated in 100 μL complete media in white 96-well plates with clear bottoms at 37° C. for up to 24 h to facilitate attachment and allow cells to recover from seeding stresses. Next day, the cell culture medium was removed. Serially diluted compounds in 100 μL assay media (EMEM, 2% FBS, 1% P/S, 1% cellgro Glutagro™ supplement, 1% HEPES) were added to the cells and incubated for 4 h at 37° C. in a humidified 5% CO2 incubator. 100 μL of OC43 virus stock was diluted to a concentration known to produce optimal cytopathic effect, inducing 80-90% reduction in cell viability. 96-well plates were incubated for 6 days at 33° C.; each plate contains uninfected control wells as well as virus-infected wells that were not treated with compound. Cytotoxicity plates without the addition of OC43 virus were carried out in parallel. At the end of the incubation period, 100 μL cell culture supernatant was replaced with 100 μL cell-titer-glo reagent (Promega, Madison, WI) and incubated for at least 10 min at rt prior to measuring luminescence. Luminescence was measured on a Perkin Elmer (Waltham, MA) Envision plate reader. Antiviral % inhibition was calculated as follows: [(Compound treated cells infected sample)−(no compound infected control)]/[(Uninfected control)−(no compound infected control)]*100; Using GraphPad (San Diego, CA) prism software version 8.3.1, the antiviral dose-response plot was generated as a sigmoidal fit, log(inhibitor) vs response-variable slope (four parameters) model and the EC50 was calculated which is the predicted compound concentration corresponding to a 50% inhibition of the viral cytopathic effect.
(§2) Table 2 indicates related EC50 and CC50 values for the tested compounds ‘A’ indicates an EC50<100 nM, ‘B’ indicates an EC50 of ≥100 nM and <1000 nM, ‘C’ indicates an EC50≥1000 nM and <10000 nM and ‘D’ indicates an EC50≥10000 nM and <100000 nM. For CC50, the values are reported in micromolar (M), ‘A’ indicates a CC50≥10000 nM and ‘B’ indicates a CC50≥1 μM and <10 μM.

The nature of data set [7]: in vitro. The conditions noted are these: human.
The target in data set [8] is T2, human cathepsin L (Homo sapiens, UniProt P07711).
T2 construct: purchased R&D Systems
T2 sequence (P07711 114-333): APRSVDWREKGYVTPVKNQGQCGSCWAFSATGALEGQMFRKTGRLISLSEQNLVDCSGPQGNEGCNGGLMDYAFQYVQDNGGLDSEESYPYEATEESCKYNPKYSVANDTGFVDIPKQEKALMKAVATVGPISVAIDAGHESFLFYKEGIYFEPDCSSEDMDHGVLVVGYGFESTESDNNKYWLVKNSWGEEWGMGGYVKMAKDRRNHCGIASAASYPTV
Nature of the data set: Cathepsin L assay. It is filed as biochemical. The conditions noted are these: 10 pM human cathepsin L, Z-FR-AMC 2 μM. How it is done:
For the cathepsin L assay, 10 pM of human cathepsin L (R&D Systems; Minneapolis, MN) was preincubated for 30 mins with test compounds. Reactions were initiated by the addition of a peptide substrate Z-FR-AMC (final concentration 2 μM, Anaspec; Fremont, CA). Fluorescence was measured at 2-minute intervals for 30 mins using a 355/460 excitation/emission filter module on an Envision plate reader (Perkin Elmer; Waltham, MA). The IC50 values were calculated for each assay by fitting the curves using a four-parameter equation in GraphPad Prism.
Table 4 indicates related IC50 values for the tested compounds where ‘A’ indicates an IC50≥10000 nM, ‘B’ indicates an IC50 of ≥1000 nM and <10000 nM, ‘C’ indicates an IC50; ≥100 nM and <1000 nM, ‘D’ indicates an IC50<100 nM.

Data set [9] in a line: Cytotoxicity in HeLa cells without OC43 virus. Type of data set: cell-based. The conditions noted are these: human, HeLa cells (uninfected), in parallel. How it is done: as §1, §2

Consider `CN1CCN(C(=O)N[C@@H](Cc2ccccc2)C(=O)N[C@H](/C=C/S(=O)(=O)c2ccccc2)CCc2ccccc2)CC1` [Compound K117777], for which the “antiviral effect when TMPRSS2 was expressed” value in [1] is reported as “abolished”. In addition, the “inhibitory effect on the 3Clpro” value in data set [2] is given as “lacks an inhibitory effect”. Further, in data set [3], the “inhibition of SARS-CoV-2” value is “potent inhibition”.
What is called EC50 is the concentration that produces a half-maximal response. The IC50 is the midpoint of a concentration-inhibition curve. `CC(C)(C)[C@H](NC(=O)C(F)(F)F)C(=O)N1C[C@H]2[C@@H]([C@H]1C(=O)NC(C#N)c1cncc3ccccc13)[C@H]1C=C[C@@H]2C1` (stereo partly drawn) [Compound 1, (1S,3aR,4S,7R,7aS)—N-(cyano(isoquinolin-4-yl)methyl)-2-((S)-3,3-dimethyl-2-(2,2,2-trifluoroacetamido)butanoyl)-2,3,3a,4,7,7a-hexahydro-1H-4,7-methanoisoindole-1-carboxamide]: the EC50 in [4] and in [6] was below 100 nM throughout. Moreover, the results for the 50% inhibitory concentration (IC50) in data set [5] and in [8] were below 20 nM and at least 10000 nM, respectively. In [7], this molecule yielded a CC50 above 1000 nM. In data set [9], this molecule showed a CC50 at 6 days of at least 10000 nM.
